Test results: patent US20220055989A1, “CONDENSED PYRROLES AS NOVEL BROMODOMAIN INHIBITORS” (ALBERT LUDWING UNIVERSITÄT FREIBURG, priority 2018, published 2022)
Read-outs that look alike come from different tables or passages of the source.

Tests used:
Assay type in all cases: binding
BRD7 = target: T1, BRD7 (Homo sapiens, UniProt Q9NPI1); assay: BROMOscan Kd determination BRD7
T1 construct: T7 phage strains displaying bromodomains were grown; host or cells: T7 phage in E. coli derived from BL21
T1 sequence (Q9NPI1 131-235 limits assumed): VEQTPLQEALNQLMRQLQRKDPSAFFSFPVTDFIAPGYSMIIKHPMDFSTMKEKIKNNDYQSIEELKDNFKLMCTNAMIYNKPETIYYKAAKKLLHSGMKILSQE
Procedure: (§1) Bromodomain profiling was carried out on the basis of BROMOscan™. This platform accounted for the indirect determination of the dissociation constants between 19 bromodomains and the compound of formula (13), by binding competition against a reference immobilized ligand. Compounds that bind the bromodomain prevent its binding to the immobilized ligand thus reducing the amount of protein captured. […] Hits are identified by measuring the amount of bromodomain captured in test versus control samples. Bromodomain assays for Kd determination: T7 phage strains displaying bromodomains were grown in parallel in 24-well blocks in an E. coli host derived from the BL21 strain. E. coli were grown to log-phase and infected with T7 phage from a frozen stock (multiplicity of infection=0.4) and incubated with shaking at 32° C. until lysis (90-150 minutes). The lysates were centrifuged (5,000×g) and filtered (0.2 μm) to remove cell debris. […] The liganded beads were blocked with excess biotin and washed with blocking buffer (SeaBlock (Pierce), 1% BSA, 0.05% Tween 20, 1 mM DTT) to remove unbound ligand and to reduce non-specific phage binding. […] Test compounds were prepared as 1000× stocks in 100% DMSO. Kds were determined using an 11-point 3-fold compound dilution series with one DMSO control point. All compounds for Kd measurements are distributed by acoustic transfer (non-contact dispensing) in 100% DMSO. The compounds were then diluted directly into the assays such that the final concentration of DMSO was 0.09%. All reactions performed in polypropylene 384-well plates. Each was a final volume of 0.02 ml. […] The bromodomain concentration in the eluates was measured by qPCR. […] All compounds for Kd measurements are distributed by acoustic transfer (non-contact dispensing) in 100% DMSO. The compounds were then diluted directly into the assays such that the final concentration of DMSO was 0.09%. Most Kds were determined using a compound top concentration=10,000 nM. If the initial Kd determined was <0.169 nM (the lowest concentration tested), the measurement was repeated with a serial dilution starting at a lower top concentration. Binding Constants (Kds): Binding constants (Kds) were calculated with a standard dose-response curve using the Hill equation: The Hill Slope was set to −1. Curves were fitted using a non-linear least square fit with the Levenberg-Marquardt algorithm.

BRDT(1) = target: T2, BRDT(1) (Homo sapiens, UniProt Q58F21); assay: BROMOscan Kd determination BRDT(1)
T2 construct: T7 phage strains displaying bromodomains were grown; host or cells: T7 phage in E. coli derived from BL21
Procedure: as §1

BRPF1B = target: T3, BRPF1B (Homo sapiens, UniProt P55201); assay: Dissociation constant KD BRPF1B
T3 construct: dissociation constants KD for two bromodomains (BRD4(1) and BRPF1B)
T3 sequence (P55201 628-732 limits assumed): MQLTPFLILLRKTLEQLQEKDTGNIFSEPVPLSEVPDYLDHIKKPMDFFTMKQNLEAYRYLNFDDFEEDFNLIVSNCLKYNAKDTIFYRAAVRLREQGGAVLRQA

BRD4(1) [1] = target: T4, BRD4(1) (Homo sapiens, UniProt O60885); assay: Isothermal titration calorimetry, dissociation constant KD BRD4(1)
T4 construct: BRD4-BD1 was expressed and purified as described previously; made in house
Procedure: BRD4-BD1 was expressed and purified as described previously (Filippakopoulos et al, (2012), Cell 149(1): […]) with the exception of the final buffer for crystallization and ITC analysis (20 mM Hepes/NaOH pH 7.5, 150 mM NaCl). Crystals were grown in the presence of 3.5 M Na-Formate (pH 7.5) at a protein concentration of 10 mg/ml and a ligand concentration of 2 mM added directly to the protein prior to crystallization from a 100 mM stock solution in DMSO. Data were collected at 100K using either a Rigaku HF-007 rotating anode X-ray generator equipped with VariMaxHF optics and a Saturn944 CCD detector or a mar345 image plate respectively at λ=1.54179 Å or at the PXI beamline at the Swiss Light Source at λ=1.000 Å with a Pilatus detector. Data processing and reduction was done with iMOSFLM (Leslie AGW PH (2007), Evolving Methods for Macromolecular Crystallography 245, 41.51), POINTLESS, and SCALA (Kabsch W (2010) Xds. Acta crystallographica. Section D, Biological crystallography 66(Pt 2):125-132; Bruker (2008) SADABS, SAINT and XPREP (Bruker AXS Inc., Madison, Wis., USA); Collaborative Computational Project N (1994) The CCP4 suite: programs for protein crystallography, Acta crystallographica, Section D, Biological crystallography 50(Pt 5):760-763), or with XDS, XSCALE, XDSCONV (Evans P (2006), Scaling and assessment of data quality, Acta crystallographica, Section D, Biological crystallography 62(Pt 1):72-82), and XPREP (Evans P R (2011), An introduction to data reduction: space-group determination, scaling and intensity statistics, Acta crystallographica, Section D, Biological crystallography 67(Pt 4):282-292).
Data were obtained in discrete titration experiments with an injection volume of 12 μl per injection. Subsequently, the heats per injection were calculated as integrals and after normalization against the molar concentrations plotted against the molar ratio as implemented in Microcal Origin. Finally, data were fitted according to a single set of sites binding model with
The dissociation constant Kd, is commonly used to describe the affinity between a ligand L and a protein, i.e. how tightly a ligand binds to a particular protein. The dissociation constant has molar units which correspond to the concentration of ligand at which the binding site on a particular protein is half occupied, i.e. the concentration of the ligand at which the concentration of protein with ligand bound equals the concentration of protein with no ligand bound. The smaller the dissociation constant, the higher the affinity between ligand and protein.

CECR2 = target: T5, CECR2 (Homo sapiens, UniProt Q9BXF3); assay: BROMOscan Kd determination CECR2
T5 construct: T7 phage strains displaying bromodomains were grown; host or cells: T7 phage in E. coli derived from BL21
T5 sequence (Q9BXF3 434-538 limits assumed): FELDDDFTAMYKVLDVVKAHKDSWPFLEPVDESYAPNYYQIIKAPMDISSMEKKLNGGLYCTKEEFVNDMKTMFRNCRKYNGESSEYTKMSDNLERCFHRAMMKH
Procedure: as §1

BRD9 = target: T6, BRD9 (Homo sapiens, UniProt Q9H8M2); assay: BROMOscan Kd determination BRD9
T6 construct: T7 phage strains displaying bromodomains were grown; host or cells: T7 phage in E. coli derived from BL21
T6 sequence (Q9H8M2 136-240 limits assumed): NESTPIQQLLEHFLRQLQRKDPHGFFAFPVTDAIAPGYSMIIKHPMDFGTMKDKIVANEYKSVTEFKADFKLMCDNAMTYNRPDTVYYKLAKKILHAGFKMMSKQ
Procedure: as §1

BRPF1 = target: T7, BRPF1 (Homo sapiens, UniProt P55201); assay: BROMOscan Kd determination BRPF1
T7 construct: T7 phage strains displaying bromodomains were grown; host or cells: T7 phage in E. coli derived from BL21
T7 sequence (P55201 628-732 limits assumed): T3 sequence (P55201 628-732 limits assumed)
Procedure: as §1

BRD4(1) [2] = target: T4, BRD4(1); assay: BROMOscan Kd determination BRD4(1)
Procedure: as §1

BRD3(2) = target: T8, BRD3(2) (Homo sapiens, UniProt Q15059); assay: BROMOscan Kd determination BRD3(2)
T8 construct: T7 phage strains displaying bromodomains were grown in parallel; made in house; host or cells: T7 phage grown in an E. coli host derived from the BL21 strain
T8 sequence (Q15059 306-415 limits assumed): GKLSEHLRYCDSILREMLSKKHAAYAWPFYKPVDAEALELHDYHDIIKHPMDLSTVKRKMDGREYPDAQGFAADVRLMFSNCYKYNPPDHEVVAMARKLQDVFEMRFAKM
Procedure: Bromodomain profiling was carried out on the basis of BROMOscan™. This platform accounted for the indirect determination of the dissociation constants between 19 bromodomains and the compound of formula (13), by binding competition against a reference immobilized ligand. Compounds that bind the bromodomain prevent its binding to the immobilized ligand thus reducing the amount of protein captured. […] Hits are identified by measuring the amount of bromodomain captured in test versus control samples. Bromodomain assays for Kd determination: T7 phage strains displaying bromodomains were grown in parallel in 24-well blocks in an E. coli host derived from the BL21 strain. E. coli were grown to log-phase and infected with T7 phage from a frozen stock (multiplicity of infection=0.4) and incubated with shaking at 32° C. until lysis (90-150 minutes). The lysates were centrifuged (5,000×g) and filtered (0.2 μm) to remove cell debris. […] Kds were determined using an 11-point 3-fold compound dilution series with one DMSO control point. […] The bromodomain concentration in the eluates was measured by qPCR. […] Most Kds were determined using a compound top concentration=10,000 nM. […] Binding Constants (Kds): Binding constants (Kds) were calculated with a standard dose-response curve using the Hill equation: The Hill Slope was set to −1. […]

Row | Kd (BRD7; Table 3 compound 27) | Kd (BRDT(1); Table 3 compound 27) | Kd (BRPF1B) | Kd (BRD4(1) [1]) | Kd (CECR2; Table 3 compound 27) | Kd (BRD9; Table 3 compound 27) | Kd (BRPF1; Table 3 compound 27) | Kd (BRD4(1) [2]; Table 3 compound 27) | Kd (BRD7) | Kd (BRDT(1)) | Kd (BRD3(2)) | Kd (CECR2) | Kd (BRD9) | Kd (BRPF1) | Kd (BRD4(1) [2]) | Structure (SMILES)
1 | > 10 µM | > 10 µM | > 10 µM | > 10 µM | > 10 µM | 0.8 µM | > 10 µM | > 10 µM |  |  |  |  |  |  |  | CCCCc1[nH]c(-c2cc(N)ccc2Cl)c2c1C(=O)CCCC2 [Compound 27, 1-(5-Amino-2-chlorophenyl)-3-butyl-5,6,7,8-tetrahydrocyclohepta[c]pyrrol-4(2H)-one]
2 |  |  | 0.166 µM |  |  |  |  |  | 0.43 µM | 0.24 µM | 0.33 µM | 0.97 µM | 0.067 µM | 0.13 µM | 0.25 µM | Cc1[nH]c(-c2cc(N)ccc2Cl)c2c1C(=O)CCCC2 [Compound 23]
3 |  |  |  | 0.0778 µM |  |  |  |  | 0.085 µM | 0.67 µM | 0.14 µM |  | 0.067 µM | 0.52 µM | 0.06 µM | COc1ccc(S(=O)(=O)N2CCOCC2)cc1NC(=O)c1[nH]c(C)c2c1CCCCC2=O [Compound 13, N-(2-methoxy-5-(morpholinosulfonyl)phenyl)-3-methyl-4-oxo-2,4,5,6,7,8-hexahydrocyclohepta[c]pyrrole-1-carboxamide]
4 |  |  | 7 µM | 6.9 µM |  |  |  |  | 1.1 µM | 6.1 µM |  | > 10 µM | 0.15 µM | 7 µM | 6.9 µM | CCCc1[nH]c(-c2cc(N)ccc2Cl)c2c1C(=O)CCCC2 [Compound 26, 1-(5-Amino-2-chlorophenyl)-3-propyl-5,6,7,8-tetrahydrocyclohepta[c]pyrrol-4(2H)-one]
